Source: patent publication US20110195404A1, “SYSTEMS AND METHODS FOR DETERMINING CALCIUM LEVELS” (priority 2010, published 2011)
Where “and” joins values, the source holds several entries; their conditions need not be identical. Identical values can stand only once.

Assays:
α-amylase = molecular target: T1, α-amylase (Homo sapiens, UniProt P0DUB6); assay: α-Amylase inhibition saliva screening (2-chloro-p-nitrophenol-maltotriose substrate, absorbance 405 nm); type: biochemical; settings: 37° C.; for α-amylase assay reading (absorbance at 405 nm), single replicate: test compound prepared at 5,000 ppm
T1 sequence (P0DUB6 16-511): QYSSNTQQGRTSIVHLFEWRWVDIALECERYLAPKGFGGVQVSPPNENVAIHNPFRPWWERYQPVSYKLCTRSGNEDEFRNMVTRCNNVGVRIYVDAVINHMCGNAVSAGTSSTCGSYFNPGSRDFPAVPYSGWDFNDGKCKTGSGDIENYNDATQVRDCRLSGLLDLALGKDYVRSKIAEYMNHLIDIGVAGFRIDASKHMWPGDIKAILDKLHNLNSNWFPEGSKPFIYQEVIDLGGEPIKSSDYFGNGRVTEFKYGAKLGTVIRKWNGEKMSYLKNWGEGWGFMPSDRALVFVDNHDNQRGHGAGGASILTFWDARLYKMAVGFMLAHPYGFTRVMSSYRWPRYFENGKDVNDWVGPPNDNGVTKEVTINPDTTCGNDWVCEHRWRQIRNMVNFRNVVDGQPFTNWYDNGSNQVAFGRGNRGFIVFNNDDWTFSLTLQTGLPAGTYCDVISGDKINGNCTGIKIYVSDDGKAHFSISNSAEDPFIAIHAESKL
Source text: Enzymatic activity of α-amylase on the substrate yields 2-chloro-p-nitrophenol, which can be measured spectrophotometrically at 405 nm. The amount of α-amylase activity present in the experimental sample is directly proportional to the increase in absorbance at 405 nm.

Lysozyme = molecular target: T2, Lysozyme (Homo sapiens, UniProt P61626); assay: Lysozyme inhibition saliva screening (fluorescein-labeled Micrococcus lysodeikticus); type: biochemical
T2 sequence (P61626 19-148): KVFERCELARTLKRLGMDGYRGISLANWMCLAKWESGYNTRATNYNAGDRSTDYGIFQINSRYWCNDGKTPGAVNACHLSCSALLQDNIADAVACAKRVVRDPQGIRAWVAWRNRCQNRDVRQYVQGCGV
Source text: The assay measures lysozyme activity on Micrococcus lysodeikticus cell walls, which are labeled to such a degree that the fluorescence is quenched. Lysozyme activity can relieve this quenching; yielding increased fluorescence that is proportional to lysozyme activity.

Row | Compound | α-amylase assay reading, Ave (α-amylase; 0 min, 5,000 ppm) | α-amylase assay reading (absorbance at 405 nm), single replicate (α-amylase; 0 min, sulfate hydrate) | α-amylase assay reading, Ave (α-amylase; 5 min, 5,000 ppm) | α-amylase assay reading (absorbance at 405 nm), single replicate (α-amylase; 5 min, sulfate hydrate) | α-amylase assay reading, Ave (α-amylase; 15 min, 5,000 ppm) | α-amylase assay reading (absorbance at 405 nm), single replicate (α-amylase; 15 min, sulfate hydrate) | α-amylase assay reading (absorbance at 405 nm), single replicate (α-amylase; 0 min) | α-amylase assay reading (absorbance at 405 nm), single replicate (α-amylase; 5 min) | inhibition of Lysozyme (Lysozyme; 100% saliva samples (data not shown)) | Lysozyme Inhibitor Activity (Lysozyme; dilute (3.5%) saliva, FIG. 12)
1 | Aluminum sulfate hydrate [CDI-34] | 0.40 | 0.40 (2×) and 0.36 and 0.45 | 0.50 | 0.49 and 0.50 (2×) and 0.52 | 0.56 | 0.53 and 0.61 and 0.54 and 0.56 |  |  |  | 
2 | Aluminum potassium sulfate dodecahydrate [CDI-42] | 0.92 |  |  |  |  |  | 0.80 and 0.90 and 0.84 | 1.80 |  | 
3 | CC(=O)O [CDI-047, Acetic acid] |  |  |  |  |  |  |  |  | inhibit Lysozyme | Lysozyme Inhibitor Activity
